Laboratory results reported in publication PMC8398847, “Isavuconazole: Thermodynamic Evaluation of Processes Sublimation, Dissolution and Partition in Pharmaceutically Relevant Media” (Molecules, 2021).

How the values were obtained:
[1] = Vapor pressure by transpiration (inert gas-carrier transfer) method; sublimation thermodynamic functions; assay type: physicochemical; conditions: test of the technique with the standard
Procedure: The thermodynamic functions of sublimation were calculated as the fitting coefficients of the Clarke and Glew equation [17]:(1) Rlnp/p^0=ΔcrgGm°(θ)/θ+ΔcrgHm°(θ)(1/θ−1/T)+ΔcrgCp,m°(θ)(θ/T−1+lnT/θ) where ΔcrgHm°(θ) is the standard molar sublimation enthalpy, ΔcrgGm°(θ) is the standard molar Gibbs energy of sublimation, and ΔcrgCp,m°(θ) is the difference between the constant pressure standard molar heat capacity Cp,m°(g) of the gaseous compound and the constant pressure standard molar heat capacity Cp,m°(cr) of the crystalline compound. The value is the arbitrary reference temperature θ = 298.15 K; p^0 = 10^5 Pa is the reference pressure.
The transpiration method was used for the sublimation experiment. A stream of an inert gas (nitrogen) was passed over a sample at the constant temperature and flow rate; saturation of the gas with the substance vapor was achieved by low transpiration rate of gas. Then, the sublimated quantity of condensed vapor was determined. The volume of the inert gas and the amount of the sublimated material were used for calculation the vapor pressure over the sample of compound at this temperature. The following procedure was used for determination the amount of sublimed substance. The condensed sample was dissolved in a known volume of solvent Vsol. The mass of the substance was determined by the measurement of absorbance A of its solution (spectrophotometer Cary-50, Varian, Palo Alto, CA, USA, Software Version 3.00 (339)). According to the Lambert–Beer law the concentration of the solution c (mol·L^−1) can express knowing a value of the extinction coefficient ε (l·mol^−1·cm^−1) of the studied compound dissolved in the solvent and an absorbing path length (l):A = εcl(5) where l is an absorbing path length. Calculation the mass of sublimed compound was performed according to the equation:m = cVsolM(6)
M is the molar mass of the studied substance.
The vapor pressure p at each temperature was determined from the amount of the substance collected within a known time:p = mRTa/VM(7) where V is the volume of the gaseous nitrogen evaluated from the time measurement and the flow rate at the flow meter temperature Ta and the atmospheric pressure. Uncertainties for transpiration experiment parameters (T, m, Ta, V) are reported as standard deviations (Table 1). The combined standard uncertainty of vapor pressure measurements were estimated taking into account uncertainties of all variables involved in eq 7.
The details of equipment and experimental procedure are given in [33]. The sublimation technique was tested with benzoic acid as standard. The experimental vapor pressure values were obtained in the temperature interval of (307–385) K and were in good agreement with the results of studies within the limits of experimental error (Figure S7). The standard sublimation enthalpy of benzoic acid measured by us was 90.5 ± 0.3 kJ·mol^−1 and consistent with recommended by IUPAC value—89.7 ± 0.5 kJ·mol^−1 [38]. Each experiment at fixed temperature was repeated three times with the standard deviation of up to 5%.

[2] = design: method as in earlier work; conditions: cited from earlier work

Which results are given for O=C(O)c1ccccc1 [benzoic acid]?
standard sublimation enthalpy [1]: 21.6 ± 0.072 kcal/mol; standard sublimation enthalpy recommended by IUPAC [2]: 21.4 ± 0.12 kcal/mol
